Measured values reported in the supplement of paper PMC10307832.

Legend:
Assay in all cases: relative viability (nuclei count vs DMSO), 5 days (fraction); higher = more cells survive
Tipifarnib + Trametinib = compound: Cn1cncc1[C@@](N)(c1ccc(Cl)cc1)c1ccc2c(c1)c(-c1cccc(Cl)c1)cc(=O)n2C [Tipifarnib] + CC(=O)Nc1cccc(-n2c(=O)n(C3CC3)c(=O)c3c(Nc4ccc(I)cc4F)n(C)c(=O)c(C)c32)c1 [Trametinib] (partner 0.02 µM)
Method in brief: (§1)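 Lung cancer cell lines were pin-tool dosed in 1536-well plates on the day after seeding, with either a lone drug or a fixed anchor-drug dose plus five library-drug doses (not always all listed) in √10 steps. Nuclei were counted on 4× images after 5 days. Relative viability is the ratio of treated-well to vehicle-well nuclei counts, with each value a median of duplicate plates.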

Tipifarnib + Crizotinib = compound: Cn1cncc1[C@@](N)(c1ccc(Cl)cc1)c1ccc2c(c1)c(-c1cccc(Cl)c1)cc(=O)n2C [Tipifarnib] + C[C@@H](Oc1cc(-c2cnn(C3CCNCC3)c2)cnc1N)c1c(Cl)ccc(F)c1Cl [Crizotinib] (partner 1 µM)
Method in brief: as §1

Tipifarnib + Phenformin = compound: Cn1cncc1[C@@](N)(c1ccc(Cl)cc1)c1ccc2c(c1)c(-c1cccc(Cl)c1)cc(=O)n2C [Tipifarnib] + N=C(N)NC(=N)NCCc1ccccc1 [Phenformin] (partner 250 µM)
Method in brief: as §1

Tipifarnib + OSI-027 = compound: Cn1cncc1[C@@](N)(c1ccc(Cl)cc1)c1ccc2c(c1)c(-c1cccc(Cl)c1)cc(=O)n2C [Tipifarnib] + COc1cccc2cc(-c3nc([C@H]4CC[C@H](C(=O)O)CC4)n4ncnc(N)c34)[nH]c12 [OSI-027] (partner 0.5 µM)
Method in brief: as §1

Row | Cell Line | relative viability (Tipifarnib + Trametinib; first compound 0.01 µM) | relative viability (Tipifarnib + Trametinib; first compound 0.03162 µM) | relative viability (Tipifarnib + Trametinib; first compound 0.1 µM) | relative viability (Tipifarnib + Trametinib; first compound 0.3162 µM) | relative viability (Tipifarnib + Trametinib; first compound 1 µM) | relative viability (Tipifarnib + Crizotinib; first compound 0.01 µM) | relative viability (Tipifarnib + Crizotinib; first compound 0.03162 µM) | relative viability (Tipifarnib + Crizotinib; first compound 0.1 µM) | relative viability (Tipifarnib + Crizotinib; first compound 0.3162 µM) | relative viability (Tipifarnib + Crizotinib; first compound 1 µM) | relative viability (Tipifarnib + Phenformin; first compound 0.01 µM) | relative viability (Tipifarnib + Phenformin; first compound 0.03162 µM) | relative viability (Tipifarnib + Phenformin; first compound 0.1 µM) | relative viability (Tipifarnib + Phenformin; first compound 0.3162 µM) | relative viability (Tipifarnib + Phenformin; first compound 1 µM) | relative viability (Tipifarnib + OSI-027; first compound 0.01 µM) | relative viability (Tipifarnib + OSI-027; first compound 0.03162 µM) | relative viability (Tipifarnib + OSI-027; first compound 0.1 µM) | relative viability (Tipifarnib + OSI-027; first compound 0.3162 µM) | relative viability (Tipifarnib + OSI-027; first compound 1 µM)
1 | NCI-H2023 | 0.46 | 0.373 | 0.403 | 0.228 | 0.234 | 0.491 | 0.495 | 0.302 | 0.27 | 0.333 | 0.415 | 0.381 | 0.273 | 0.272 | 0.236 | 0.412 | 0.273 | 0.225 | 0.143 | 0.132
2 | NCI-H2085 | 0.58 | 0.603 | 0.44 | 0.408 | 0.366 | 0.685 | 0.446 | 0.433 | 0.414 | 0.469 | 0.777 | 0.442 | 0.433 | 0.385 | 0.532 | 0.738 | 0.377 | 0.397 | 0.367 | 0.538
3 | NCI-H2087 | 0.157 | 0.221 | 0.235 | 0.145 | 0.14 | 0.529 | 0.534 | 0.268 | 0.438 | 0.377 | 0.463 | 0.38 | 0.298 | 0.294 | 0.222 | 0.464 | 0.205 | 0.232 | 0.161 | 0.164
4 | NCI-H2126 | 0.585 | 0.496 | 0.528 | 0.515 | 0.482 | 0.977 | 1.01 | 1.02 | 0.924 | 0.904 | 0.56 | 0.532 | 0.517 | 0.49 | 0.435 | 0.719 | 0.719 | 0.711 | 0.614 | 0.435
5 | NCI-H2170 | 1.04 | 0.876 | 0.793 | 0.716 | 0.655 | 1.33 | 1.04 | 1.1 | 0.857 | 0.644 | 0.439 | 0.418 | 0.389 | 0.379 | 0.343 | 0.668 | 0.678 | 0.583 | 0.55 | 0.353
6 | NCI-H2228 | 0.542 | 0.378 | 0.385 | 0.303 | 0.177 | 0.413 | 0.443 | 0.45 | 0.293 | 0.348 | 0.25 | 0.286 | 0.379 | 0.222 | 0.138 | 0.502 | 0.427 | 0.363 | 0.214 | 0.168
7 | NCI-H2347 | 0.308 | 0.283 | 0.269 | 0.261 | 0.293 | 0.53 | 0.546 | 0.57 | 0.476 | 0.486 | 0.474 | 0.405 | 0.501 | 0.318 | 0.315 | 0.479 | 0.368 | 0.411 | 0.259 | 0.334
8 | NCI-H2405 | 0.7 | 0.518 | 0.487 | 0.489 | 0.582 | 0.896 | 0.827 | 0.837 | 0.804 | 0.712 | 0.384 | 0.371 | 0.374 | 0.415 | 0.361 | 0.673 | 0.641 | 0.629 | 0.599 | 0.474
